Assay [1] addresses rPtxS1 (recombinant pertussis toxin S1 subunit, wild type) (Bordetella pertussis, UniProt P04977). Kind of assay: fluorometric NAD+ consumption assay. Format: biochemical.
Assay [2] deals with pertussis AB5 holotoxin (PtxS1-S5) (Bordetella pertussis, UniProt P04977). The assay is described as follows: cell-based.

For orientation: IC50 means the concentration that gives 50% inhibition.

Sequence of rPtxS1 (recombinant pertussis toxin S1 subunit, wild type) (P04977 35-221 limits assumed): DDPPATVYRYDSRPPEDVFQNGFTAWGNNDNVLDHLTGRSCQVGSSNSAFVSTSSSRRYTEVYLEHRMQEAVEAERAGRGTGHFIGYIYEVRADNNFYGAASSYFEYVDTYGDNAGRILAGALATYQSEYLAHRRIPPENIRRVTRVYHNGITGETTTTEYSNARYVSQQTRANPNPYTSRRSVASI
Sequence of pertussis AB5 holotoxin (PtxS1-S5) (P04977 whole entry, looked up): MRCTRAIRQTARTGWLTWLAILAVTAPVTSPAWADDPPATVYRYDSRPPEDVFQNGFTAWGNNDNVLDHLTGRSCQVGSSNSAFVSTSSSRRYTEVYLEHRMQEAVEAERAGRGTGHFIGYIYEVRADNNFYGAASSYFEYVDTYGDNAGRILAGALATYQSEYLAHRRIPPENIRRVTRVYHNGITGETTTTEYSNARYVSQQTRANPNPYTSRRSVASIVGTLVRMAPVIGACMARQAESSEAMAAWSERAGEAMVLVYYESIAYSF

As to `Sc1nc2c[nH]c(S)nc-2n1` [NSC29193, purine-2,8-dithiol], the IC50 in assay [1] came to 6.8 µM.
Consider `O=[N+]([O-])c1ccc(Sc2cccc[n+]2[O-])c2nonc12` [NSC228155, 7-nitro-4-(1-oxidopyridin-1-ium-2-yl)sulfanyl-2,1,3-benzoxadiazole], for which the IC50 in assay [1] came out at 3 µM; in assay [2], 2.35 µM.
On to `O=C(/C=C/c1cccnc1)/C=C/c1cccnc1` [NSC149286], for which the IC50 in assay [1] turned out to be 20 µM.

Source of the values: doi:10.1101/637801v3 (biorxiv, 2019).
